Measured values published in patent US6737383B1, “Herbicidal oxadiazolidines” (priority 1999, dated 2004).

Columns and labels:
wild oat = assay: Test B pre/postemergence wild oat; assay type: in vivo, Avena fatua; settings: for Plant response rating, Wild oats: scale of 0 to 10 where 0 is no effect and 10 is complete control
Method in brief: (§1)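 Test chemicals in a non-phytotoxic solvent mixture with surfactant were sprayed preemergence onto planted seeds and postemergence onto plants 2 to 18 cm tall (1- to 4-leaf stage). After twelve to sixteen days in a greenhouse, injury was visually rated against untreated controls from 0 (no effect) to 10 (complete control).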

soybean = assay: Test B pre/postemergence soybean; assay type: in vivo, Glycine max; settings: for Plant response rating, Soybean: scale of 0 to 10 where 0 is no effect and 10 is complete control
Method in brief: as §1

crabgrass = assay: Test B pre/postemergence crabgrass; assay type: in vivo, Digitaria sanguinalis
Method in brief: as §1

pigweed = assay: Test B pre/postemergence pigweed; assay type: in vivo, Amaranthus retroflexus; settings: for Plant response rating, Redroot pigweed: scale of 0 to 10 where 0 is no effect and 10 is complete control
Method in brief: as §1

rape = assay: Test B pre/postemergence rape; assay type: in vivo, Brassica napus; settings: for Plant response rating, Rape: scale of 0 to 10 where 0 is no effect and 10 is complete control
Method in brief: as §1

cocklebur = assay: Test B pre/postemergence cocklebur; assay type: in vivo, Xanthium strumarium
Method in brief: as §1

surinam grass = assay: Test B pre/postemergence surinam grass; assay type: in vivo, Brachiaria decumbens
Method in brief: as §1

corn = assay: Test B pre/postemergence corn; assay type: in vivo, Zea mays
Method in brief: as §1

sugar beet = assay: Test B pre/postemergence sugar beet; assay type: in vivo, Beta vulgaris; settings: for Plant response rating, Sugarbeets: scale of 0 to 10 where 0 is no effect and 10 is complete control
Method in brief: as §1

giant foxtail = assay: Test B pre/postemergence giant foxtail; assay type: in vivo, Setaria faberii
Method in brief: as §1

bamyardgrass = assay: Test B flood test barnyardgrass; assay type: in vivo, Echinochloa crus-galli
Method in brief: (§2)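 Each value is a visual injury score relative to controls, with 10 meaning complete control and 0 no effect. Evaluation took place twelve to sixteen days after the 2-leaf-stage plants were treated and kept in the greenhouse.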

rice = assay: Test B flood test rice; assay type: in vivo, Oryza sativa
Method in brief: as §2

purple nutsedge = assay: Test B pre/postemergence purple nutsedge; assay type: in vivo, Cyperus rotundus; settings: for Plant response rating, Nutsedge: scale of 0 to 10 where 0 is no effect and 10 is complete control
Method in brief: as §1

smallflower flatsedge = assay: Test B flood test smallflower flatsedge; assay type: in vivo, Cyperus difformis
Method in brief: as §2

morningglory = assay: Test B pre/postemergence morningglory; assay type: in vivo, Ipomoea hederacea; settings: for Plant response rating, Morningglory: scale of 0 to 10 where 0 is no effect and 10 is complete control
Method in brief: as §1

duck salad = assay: Test B flood test duck salad; assay type: in vivo, Heteranthera limosa
Method in brief: as §2

[1] = Postemergence, Rate 250 g/ha, scale 0 to 10
[2] = Preemergence, Rate 250 g/ha, scale 0 to 10, 0 is no effect, 10 is complete control
[3] = Preemergence, Rate 500 g/ha, scale 0 to 10, 0 is no effect, 10 is complete control
[4] = Rate 62 g/ha, Postemergence, scale 0 to 10 (0 no effect, 10 complete control)
[5] = Rate 125 g/ha, Postemergence, scale 0 to 10, 0 is no effect, 10 is complete control
[6] = Postemergence, Rate 500 g/ha, scale of 0 to 10 where 0 is no effect and 10 is complete control
[7] = Preemergence, Rate 62 g/ha, scale of 0 to 10 where 0 is no effect and 10 is complete control
[8] = Preemergence, Rate 125 g/ha, scale of 0 to 10 where 0 is no effect and 10 is complete control
[9] = Rate 62 g/ha, flood test species, Pre-emergence, visual evaluation after twelve to sixteen days
[10] = Rate 125 g/ha, under heading Pre-emergence, flood test species, visual evaluation after twelve to sixteen days
[11] = Rate 250 g/ha, Pre-emergence (flood test species), scale 0 to 10, 0 is no effect, 10 is complete control
[12] = Rate 500 g/ha, Pre-emergence, flood test species, scale 0 to 10 (0 no effect, 10 complete control)

`CC(C)N(C(=O)n1oc(=O)n(CO)c1=O)c1ccc(Cl)cc1` [Compound 457] was tested. Which “Wild oats plant response rating” value (wild oat; [1]) did it give?
Its value is 0.

And the “Plant response rating, Wild oats” value (wild oat; Preemergence, Rate 62 g/ha)?
Its value is 0.

What about the “Plant response rating, Wild oats” value (wild oat; Preemergence, Rate 125 g/ha) of the same molecule?
Its value is 0.

And the “Wild oats plant response rating” value (wild oat; [2])?
Its value is 0.

What about the “Wild oats plant response rating” value (wild oat; [3]) of the same molecule?
The value was 0.

And the “Wild oats plant response rating” value (wild oat; [4])?
Its value is 0.

And the “Wild oats plant response rating” value (wild oat; [5])?
The value was 0.

And the “Soybean plant response rating” value (soybean; [1])?
Its value is 1.

And the “Plant response rating, Soybean” value (soybean; Preemergence, Rate 62 g/ha)?
The value was 0.

What about the “Plant response rating, Soybean” value (soybean; Preemergence, Rate 125 g/ha) of the same molecule?
Its value is 0.

What about the “Soybean plant response rating” value (soybean; [2]) of the same molecule?
The value was 0.

What about the “Soybean plant response rating” value (soybean; [3]) of the same molecule?
The value was 0.

And the “Soybean plant response rating” value (soybean; [4])?
The value was 0.

And the “Soybean plant response rating” value (soybean; [5])?
The value was 0.

What about the “Crabgrass plant response rating” value (crabgrass; [1]) of the same molecule?
Its value is 0.

And the “Crabgrass plant response rating” value (crabgrass; [6])?
Its value is 0.

And the “Plant response rating, Crabgrass” value (crabgrass; [7])?
The value was 0.

What about the “Plant response rating, Crabgrass” value (crabgrass; [8]) of the same molecule?
Its value is 0.

And the “Crabgrass plant response rating” value (crabgrass; [2])?
The value was 0.

And the “Crabgrass plant response rating” value (crabgrass; [3])?
Its value is 0.

And the “Crabgrass plant response rating” value (crabgrass; [4])?
Its value is 0.

What about the “Crabgrass plant response rating” value (crabgrass; [5]) of the same molecule?
Its value is 0.

What about the “Redroot pigweed plant response rating” value (pigweed; [1]) of the same molecule?
Its value is 0.

And the “Plant response rating, Redroot pigweed” value (pigweed; Preemergence, Rate 62 g/ha)?
The value was 0.

And the “Plant response rating, Redroot pigweed” value (pigweed; Preemergence, Rate 125 g/ha)?
Its value is 0.

And the “Redroot pigweed plant response rating” value (pigweed; [2])?
The value was 0.

And the “Redroot pigweed plant response rating” value (pigweed; [3])?
The value was 0.

What about the “Redroot pigweed plant response rating” value (pigweed; [4]) of the same molecule?
The value was 0.

What about the “Redroot pigweed plant response rating” value (pigweed; [5]) of the same molecule?
The value was 0.

And the “Rape plant response rating” value (rape; [1])?
The value was 0.

And the “Plant response rating, Rape” value (rape; Preemergence, Rate 62 g/ha)?
The value was 0.

And the “Plant response rating, Rape” value (rape; Preemergence, Rate 125 g/ha)?
Its value is 0.

And the “Rape plant response rating” value (rape; [2])?
The value was 0.

And the “Rape plant response rating” value (rape; [3])?
Its value is 0.

What about the “Rape plant response rating” value (rape; [4]) of the same molecule?
Its value is 0.

What about the “Rape plant response rating” value (rape; [5]) of the same molecule?
Its value is 0.

And the “Cocklebur plant response rating” value (cocklebur; [1])?
The value was 0.

What about the “Cocklebur plant response rating” value (cocklebur; [6]) of the same molecule?
Its value is 0.

What about the “Plant response rating, Cocklebur” value (cocklebur; [7]) of the same molecule?
Its value is 0.

What about the “Plant response rating, Cocklebur” value (cocklebur; [8]) of the same molecule?
The value was 0.

What about the “Cocklebur plant response rating” value (cocklebur; [2]) of the same molecule?
Its value is 0.

And the “Cocklebur plant response rating” value (cocklebur; [3])?
The value was 0.

What about the “Cocklebur plant response rating” value (cocklebur; [4]) of the same molecule?
Its value is 0.

And the “Cocklebur plant response rating” value (cocklebur; [5])?
Its value is 0.

And the “B. signalgrass plant response rating” value (surinam grass; Postemergence, Rate 250 g/ha, scale 0 to 10, 0 no effect, 10 complete control)?
The value was 0.

What about the “B. signalgrass plant response rating” value (surinam grass; [6]) of the same molecule?
The value was 0.

And the “Plant response rating, B. signalgrass” value (surinam grass; [7])?
The value was 0.

What about the “Plant response rating, B. signalgrass” value (surinam grass; [8]) of the same molecule?
The value was 0.

And the “B. signalgrass plant response rating” value (surinam grass; [2])?
Its value is 0.

And the “B. signalgrass plant response rating” value (surinam grass; [3])?
Its value is 0.

And the “B. signalgrass plant response rating” value (surinam grass; [4])?
Its value is 0.

What about the “B. signalgrass plant response rating” value (surinam grass; [5]) of the same molecule?
Its value is 0.

What about the “Corn plant response rating” value (corn; [1]) of the same molecule?
Its value is 0.

What about the “Corn plant response rating” value (corn; [6]) of the same molecule?
The value was 0.

And the “Plant response rating, Corn” value (corn; [7])?
The value was 0.

And the “Plant response rating, Corn” value (corn; [8])?
The value was 0.

And the “Corn plant response rating” value (corn; [2])?
The value was 0.

And the “Corn plant response rating” value (corn; [3])?
The value was 0.

And the “Corn plant response rating” value (corn; [4])?
Its value is 0.

What about the “Corn plant response rating” value (corn; [5]) of the same molecule?
The value was 0.

And the “Sugarbeets plant response rating” value (sugar beet; [1])?
The value was 0.

What about the “Plant response rating, Sugarbeets” value (sugar beet; Preemergence, Rate 62 g/ha) of the same molecule?
The value was 0.

What about the “Plant response rating, Sugarbeets” value (sugar beet; Preemergence, Rate 125 g/ha) of the same molecule?
Its value is 0.

What about the “Sugarbeets plant response rating” value (sugar beet; [2]) of the same molecule?
The value was 0.

What about the “Sugarbeets plant response rating” value (sugar beet; [3]) of the same molecule?
Its value is 0.

And the “Sugarbeets plant response rating” value (sugar beet; [4])?
The value was 0.

What about the “Sugarbeets plant response rating” value (sugar beet; [5]) of the same molecule?
Its value is 0.

And the “Giant foxtail plant response rating” value (giant foxtail; [1])?
Its value is 0.

And the “Giant foxtail plant response rating” value (giant foxtail; [6])?
Its value is 0.

What about the “Plant response rating, Giant foxtail” value (giant foxtail; [7]) of the same molecule?
The value was 0.

And the “Plant response rating, Giant foxtail” value (giant foxtail; [8])?
The value was 0.

And the “Giant foxtail plant response rating” value (giant foxtail; [2])?
The value was 0.

What about the “Giant foxtail plant response rating” value (giant foxtail; [3]) of the same molecule?
Its value is 8.

And the “Giant foxtail plant response rating” value (giant foxtail; [4])?
The value was 0.

And the “Giant foxtail plant response rating” value (giant foxtail; [5])?
The value was 0.

What about the “Plant response rating, Barnyardgrass (0 to 10 scale, 0 is no effect, 10 is complete control)” value (bamyardgrass; [9]) of the same molecule?
The value was 0.

What about the “Barnyardgrass plant response rating (0 to 10 scale, 0 is no effect, 10 is complete control)” value (bamyardgrass; [10]) of the same molecule?
The value was 0.

And the “Barnyardgrass plant response rating” value (bamyardgrass; [11])?
Its value is 0.

What about the “Barnyardgrass plant response rating” value (bamyardgrass; [12]) of the same molecule?
The value was 0.

What about the “Plant response rating, Rice (0 to 10 scale, 0 is no effect, 10 is complete control)” value (rice; [9]) of the same molecule?
Its value is 0.

What about the “Rice plant response rating (0 to 10 scale, 0 is no effect, 10 is complete control)” value (rice; [10]) of the same molecule?
The value was 0.

And the “Rice plant response rating” value (rice; [11])?
The value was 0.

What about the “Rice plant response rating” value (rice; [12]) of the same molecule?
The value was 0.

What about the “Nutsedge plant response rating” value (purple nutsedge; [1]) of the same molecule?
The value was 0.

And the “Plant response rating, Nutsedge” value (purple nutsedge; Preemergence, Rate 62 g/ha)?
The value was 0.

And the “Plant response rating, Nutsedge” value (purple nutsedge; Preemergence, Rate 125 g/ha)?
The value was 0.

And the “Nutsedge plant response rating” value (purple nutsedge; [2])?
Its value is 0.

And the “Nutsedge plant response rating” value (purple nutsedge; [3])?
Its value is 0.

What about the “Nutsedge plant response rating” value (purple nutsedge; [4]) of the same molecule?
Its value is 0.

What about the “Nutsedge plant response rating” value (purple nutsedge; [5]) of the same molecule?
Its value is 0.

And the “Plant response rating, S. Flatsedge (0 to 10 scale, 0 is no effect, 10 is complete control)” value (smallflower flatsedge; [9])?
Its value is 0.

What about the “S. Flatsedge plant response rating (0 to 10 scale, 0 is no effect, 10 is complete control)” value (smallflower flatsedge; [10]) of the same molecule?
The value was 0.

What about the “S. Flatsedge plant response rating” value (smallflower flatsedge; [11]) of the same molecule?
Its value is 0.

And the “S. Flatsedge plant response rating” value (smallflower flatsedge; [12])?
The value was 0.

And the “Morningglory plant response rating” value (morningglory; [1])?
Its value is 0.

And the “Plant response rating, Morningglory” value (morningglory; Preemergence, Rate 62 g/ha)?
The value was 0.

What about the “Plant response rating, Morningglory” value (morningglory; Preemergence, Rate 125 g/ha) of the same molecule?
The value was 0.

And the “Morningglory plant response rating” value (morningglory; [2])?
Its value is 0.

What about the “Morningglory plant response rating” value (morningglory; [3]) of the same molecule?
Its value is 0.

What about the “Morningglory plant response rating” value (morningglory; [4]) of the same molecule?
The value was 0.

What about the “Morningglory plant response rating” value (morningglory; [5]) of the same molecule?
The value was 0.

What about the “Plant response rating, Ducksalad (0 to 10 scale, 0 is no effect, 10 is complete control)” value (duck salad; [9]) of the same molecule?
Its value is 0.

And the “Ducksalad plant response rating (0 to 10 scale, 0 is no effect, 10 is complete control)” value (duck salad; [10])?
The value was 0.

What about the “Ducksalad plant response rating” value (duck salad; [11]) of the same molecule?
Its value is 0.

And the “Ducksalad plant response rating” value (duck salad; [12])?
The value was 0.
